Source: publication PMC9280334 (Frontiers in Chemistry, 2022)
Several values for one entry are separate records, joined by “and”; a condition that tells them apart may be missing. Identical values can stand only once.

Key:
AChE (electric eel) = molecular target: T1, AChE (electric eel) (Electrophorus electricus, UniProt O42275); assay: biochemical; format: biochemical; conditions: for IC50: electric eel AChE, mean ± SEM of three experiments
T1 construct: purchased Sigma-Aldrich
Experimental: (§1) AChE, BuChE, 5,5'-dithiobis (2-nitrobenzoic acid) (DTNB), acetyl- and butyrylthiocholine iodides were purchased from Sigma-Aldrich. Five different concentrations of the corresponding compounds in ethanol-DMSO (9:1) were prepared. […] After 3 min of incubation, the substrate solution (acetylthiocholine iodide or butyrylthiocholine iodide, 0.05 M) was added and then incubated for at least 1 min at 25°C. […] The inhibition curve was obtained by plotting the percentage of enzyme activity (100% for the reference) versus the logarithm of the tested compound concentration. […]

BuChE (equine serum) = molecular target: T2, BuChE (equine serum) (Equus caballus, UniProt P81908); assay: biochemical; format: biochemical; conditions: for IC50: equine serum BuChE, mean ± SEM of three experiments
T2 construct: purchased Sigma-Aldrich
Experimental: as §1

PC12 cells = assay: Neuroprotection against H2O2-induced cell death in PC12 cells (MTT); format: cell-based; conditions: H2O2 (150 μM)-induced injury, mean ± SEM
Experimental: The cell viability was measured using MTT [3-(4,5-dimethylthiazol-2-yl)-2,5-diphenyl tetrazolium bromide] assay ([Datki et al., 2003]). PC12 cells (from the Iranian Biological Resource Center, IBRC) received different treatments, including no treatment (control), 150 μM H2O2 alone, or 150 μM H2O2 in combination with 0.1–50 μM of the tested compound. The cells were seeded at 1 × 10^4 cells/well and incubated at 37 °C under a 5% CO2 atmosphere for 24 h, then treated with the tested compound and incubated for 3 h. Next, the cells were exposed to H2O2 for 2 h again. The MTT solution (20 μl, 5 mg/ml) was next replaced with the medium and incubated for 4 h. 100 μl of DMSO was added to dissolve the formazan precipitate. Absorbance was then measured at 570 nm using a multi-mode plate reader (Biotek, Winooski, VT). Cell viability is expressed as a percentage relative to the untreated control.

SH-SY5Y cells [1] = assay: Cytotoxicity on SH-SY5Y cells (MTT); format: cell-based, human; conditions: for Cytotoxic effect on SH-SY5Y cells: 1 μM; for SH-SY5Y cell viability (% of control): cytotoxic effect, 1 µM compound alone, MTT, mean ± SEM
Experimental: (§2) Cell culture chemicals were purchased from Lonza, HyClone, or Thermo Scientific. Human neuroblastoma SH-SY5Y cells were maintained in Dulbecco’s modified Eagle’s medium (DMEM) supplemented with 10% FBS, 1% L-glutamine, and 1% antibiotic mix at 37°C in a humidified atmosphere containing 5% CO2. Cell viability was determined using a thiazolyl blue tetrazolium bromide [3-(4,5-dimethyl-2-thiazolyl)-2,5-diphenyl-2H-tetrazolium bromide] (MTT) assay ([Datki et al., 2003]). SH-SY5Y cells were seeded into 384-well plates at 3,000 cells per well and treated with novel compounds at a concentration of 1 μM, 3 h prior to the addition of Aβ1–42 (5 μM). After 24 h of incubation, 5 μl of the MTT reagent (5 mg/ml) was added to each well. 40 μl of DMSO was used to dissolve formazan crystals. Absorbance values were measured at 690 and 570 nm using a BMG Omega Fluorostar microplate reader.

SH-SY5Y cells [2] = assay: Neuroprotection against Aβ1-42-induced cytotoxicity in SH-SY5Y cells (MTT); format: cell-based, human; conditions: for SH-SY5Y cell viability (% of control): 1 µM compound before 5 μM Aβ1-42, MTT, mean ± SEM
Experimental: as §2, with “(MTT) assay ([Datki et al., 2003]).” left out

Aβ1-42 = molecular target: T3, Aβ1-42 (Homo sapiens, UniProt P05067); assay: Inhibition of self-induced Aβ1-42 aggregation (ThT assay); format: biochemical; conditions: for Inhibition of self-induced Aβ aggregation: Aβ1-42 20 μM, compound 100 μM, after 48 h, ThT, mean ± SEM of three experiments; for Inhibition of Aβ aggregation, fold more effective than the reference drug donepezil: self-induced Aβ aggregation, ThT assay
T3 construct: Amyloid-β protein 1–42 (Sigma A9810) was dissolved; purchased Sigma A9810
Experimental: Inhibitory properties of the compounds on self-induced and AChE-induced aggregation of amyloid-β protein 1–42 was determined using a thioflavin T (ThT)-based fluorescence assay with slight modifications ([Levine, 1993]). The ThT excitation/emission was measured at 448 nm/490 nm at 48 h using a SpectraMax® Microplate Reader. Amyloid-β protein 1–42 (Sigma A9810) was dissolved in Phosphate Buffer Saline pH 7.4 (PBS, HyClone Thermo Scientific) containing ammonium hydroxide (1%). Aβ1-42 (50 μM) was incubated for 24 h at 37°C for prefibrillation.
(§3) To determine AChE-induced Aβ1-42 aggregation, Aβ1-42 (20 μl) ± human recombinant AChE (0.01 u/ml, Sigma C1682) were added to […] of PBS buffer pH 7.4 including 0.15 M NaCl and 20 μM thioflavin T (ThT). The mixture was incubated at 37°C in the absence and presence of the compounds (100 μM) and the fluorescence intensities were determined. Due to the presence of the tested compounds, inhibition of self- or AChE-induced aggregation percent was determined by the following calculation: [100-((IFi/IFo) × 100)] where IFi and IFo are the fluorescence intensities obtained for Aβ ± AChE in the presence and in the absence of inhibitors.

[3] = molecular target: T4, Aβ1-42 and AChE (human recombinant AChE) (Homo sapiens, UniProt P22303); assay: Inhibition of AChE-induced Aβ1-42 aggregation (ThT assay); format: biochemical; conditions: Aβ1-42 and AChE (0.01 u/ml), compound 100 μM, mean ± SEM of three experiments, read-out: Inhibition of AChE-induced Aβ aggregation
T4 construct: Amyloid-β protein 1–42 (Sigma A9810) was dissolved; purchased Sigma C1682 (AChE); A9810 (Aβ1-42)
Experimental: Amyloid-β protein 1–42 (Sigma A9810) was dissolved in Phosphate Buffer Saline pH 7.4 (PBS, HyClone Thermo Scientific) containing ammonium hydroxide (1%). Aβ1-42 (50 μM) was incubated for 24 h at 37°C for prefibrillation.
as §3

[4] = ratio of IC50 values vs Donepezil

T3 sequence (P05067 672-713 limits assumed): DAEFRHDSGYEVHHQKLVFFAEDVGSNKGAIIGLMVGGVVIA
T1 sequence (O42275 24-633): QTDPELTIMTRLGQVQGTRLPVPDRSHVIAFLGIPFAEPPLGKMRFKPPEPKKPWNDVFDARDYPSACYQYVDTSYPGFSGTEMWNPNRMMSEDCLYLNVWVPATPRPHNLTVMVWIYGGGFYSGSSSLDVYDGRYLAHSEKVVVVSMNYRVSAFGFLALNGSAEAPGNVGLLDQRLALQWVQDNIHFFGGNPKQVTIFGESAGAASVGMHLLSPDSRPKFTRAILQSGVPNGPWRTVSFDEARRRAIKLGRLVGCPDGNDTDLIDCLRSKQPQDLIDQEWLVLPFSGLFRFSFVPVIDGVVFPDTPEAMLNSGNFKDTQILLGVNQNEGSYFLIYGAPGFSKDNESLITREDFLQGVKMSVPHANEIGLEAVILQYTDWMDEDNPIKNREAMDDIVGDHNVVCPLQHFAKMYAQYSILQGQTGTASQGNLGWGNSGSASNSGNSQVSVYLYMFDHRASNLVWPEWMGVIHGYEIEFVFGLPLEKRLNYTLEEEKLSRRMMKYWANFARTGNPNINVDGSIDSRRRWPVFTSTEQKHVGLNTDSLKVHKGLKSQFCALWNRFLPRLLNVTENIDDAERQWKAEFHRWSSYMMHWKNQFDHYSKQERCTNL
T2 sequence (P81908 whole entry): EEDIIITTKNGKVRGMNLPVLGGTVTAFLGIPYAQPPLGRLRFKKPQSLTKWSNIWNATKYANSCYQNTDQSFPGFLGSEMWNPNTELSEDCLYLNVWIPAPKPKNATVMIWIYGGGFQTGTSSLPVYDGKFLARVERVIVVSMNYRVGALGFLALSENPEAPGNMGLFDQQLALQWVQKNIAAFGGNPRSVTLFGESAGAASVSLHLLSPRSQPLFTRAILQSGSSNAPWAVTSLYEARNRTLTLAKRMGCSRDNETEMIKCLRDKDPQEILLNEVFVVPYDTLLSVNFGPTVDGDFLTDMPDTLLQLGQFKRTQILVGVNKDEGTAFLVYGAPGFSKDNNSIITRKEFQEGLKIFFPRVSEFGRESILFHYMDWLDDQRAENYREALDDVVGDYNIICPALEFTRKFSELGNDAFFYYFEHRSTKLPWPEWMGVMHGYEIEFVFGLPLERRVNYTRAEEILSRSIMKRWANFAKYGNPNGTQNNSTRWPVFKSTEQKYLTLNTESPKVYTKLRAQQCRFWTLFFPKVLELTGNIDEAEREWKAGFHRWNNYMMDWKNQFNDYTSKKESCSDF
T4 sequence (P22303 32-614): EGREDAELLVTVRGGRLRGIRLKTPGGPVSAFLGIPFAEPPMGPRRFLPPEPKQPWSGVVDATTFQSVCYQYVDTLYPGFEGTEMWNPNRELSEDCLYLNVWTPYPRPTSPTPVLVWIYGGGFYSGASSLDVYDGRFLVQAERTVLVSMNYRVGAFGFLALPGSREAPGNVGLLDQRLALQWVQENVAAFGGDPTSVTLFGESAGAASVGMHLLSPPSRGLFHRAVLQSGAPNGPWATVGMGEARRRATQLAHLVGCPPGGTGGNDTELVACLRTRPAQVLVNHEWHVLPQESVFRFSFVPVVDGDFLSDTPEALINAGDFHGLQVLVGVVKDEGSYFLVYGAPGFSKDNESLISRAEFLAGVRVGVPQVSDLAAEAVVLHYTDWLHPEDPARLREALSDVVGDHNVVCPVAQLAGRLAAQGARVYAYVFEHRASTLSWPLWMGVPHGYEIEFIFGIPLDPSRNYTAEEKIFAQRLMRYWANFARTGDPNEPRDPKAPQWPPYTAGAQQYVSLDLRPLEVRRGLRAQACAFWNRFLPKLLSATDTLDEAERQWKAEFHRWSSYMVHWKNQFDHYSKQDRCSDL

SMILES | IC50 (AChE (electric eel)) | IC50 (BuChE (equine serum)) | PC12 cell viability (% of control) (PC12 cells; 0.1 μM compound) | PC12 cell viability (% of control) (PC12 cells; 1 μM compound) | PC12 cell viability (% of control) (PC12 cells; 5 μM compound) | PC12 cell viability (% of control) (PC12 cells; 10 μM compound) | PC12 cell viability (% of control) (PC12 cells; 20 μM compound) | PC12 cell viability (% of control) (PC12 cells; 50 μM compound) | Cytotoxic effect on SH-SY5Y cells (SH-SY5Y cells [1]) | SH-SY5Y cell viability (% of control) (SH-SY5Y cells [1]) | SH-SY5Y cell viability (% of control) (SH-SY5Y cells [2]) | Inhibition of self-induced Aβ aggregation (Aβ1-42) | Inhibition of Aβ aggregation, fold more effective than the reference drug donepezil (Aβ1-42) | inhibition at 100 µM [3] | AChE inhibition, times more active than the standard drug Donepezil (AChE (electric eel); [4]) | BuChE inhibition, times more active than the standard drug Donepezil (BuChE (equine serum); [4]) | Neuroprotective effect against Aβ1-42-induced cytotoxicity in SH-SY5Y cells (SH-SY5Y cells [2]; 1 μM)
O=c1oc2ccccc2cc1-c1ccc(OCCC[n+]2ccccc2)cc1.[Br-] [Compound 3a, 1-(3-(4-(2-Oxo-2H-chromen-3-yl)phenoxy)propyl)pyridinium Bromide] | 4 nM | 84 ± 4 nM | 39.4 ± 1.7 % of control | 42.2 ± 1.3 % of control | 53.6 ± 1.4 % of control | 55.6 ± 0.1 % of control | 57.4 ± 0.4 % of control | 58.3 ± 1.4 % of control | no cytotoxic effect | 81.2 ± 10.0 % of control | 79 % of control and 79.1 ± 4.0 % of control | 73.3 ± 15.4% | about 2 fold | 76 ± 1.6% | – | – | –
O=c1oc2ccc([N+](=O)[O-])cc2cc1-c1ccc(OCCC[n+]2ccccc2)cc1.[Br-] [Compound 3f, 1-(3-(4-(6-Nitro-2-oxo-2H-chromen-3-yl)phenoxy)propyl)pyridinium Bromide] | 2 nM | 24 ± 5 nM | 34.1 ± 1.0 % of control | 42.8 ± 1.4 % of control | 43.1 ± 1.5 % of control | 45.0 ± 0.8 % of control | 48.3 ± 0.4 % of control | 50.8 ± 0.6 % of control | no cytotoxic effect | 83.6 ± 3.4 % of control | 89 % of control and 89.0 ± 9.8 % of control | 84.7 ± 1.6% | about 2 fold | 87.2 ± 5.7% | 7 times | – | –
CN(C)c1cc[n+](CCCOc2ccc(-c3cc4cc([N+](=O)[O-])ccc4oc3=O)cc2)cc1.[Br-] [Compound 3t, 4-(Dimethylamino)-1-(3-(4-(6-nitro-2-oxo-2H-chromen-3-yl)phenoxy)propyl)pyridin-1-ium Bromide] | 14 ± 0.9 nM | 9 ± 0.4 nM | 38.3 ± 0.9 % of control | 45.3 ± 0.7 % of control | 53.6 ± 0.7 % of control | 56.3 ± 1.6 % of control | 68.2 ± 0.1 % of control | 71.8 ± 1.1 % of control | no cytotoxic effect | 84.8 ± 6.8 % of control | 59.7 ± 2.8 % of control | 66.4 ± 4.7% | about 2 fold | 52.5 ± 4.9% | – | 305 times | could not protect neuronal cells
